Results on eleven compounds are retold here after ChEMBL document CHEMBL1125067, “Synthesis and structural requirements of N-substituted norapomorphines for affinity and activity at dopamine D-1, D-2, and agonist receptor sites in rat brain” (J Med Chem, 1990).

Test [1] concerns the target D(1A) dopamine receptor (Rattus norvegicus, UniProt P18901).
Description: Dopamine receptor D1 affinity was tested in vitro against corpus striatum from rat brain membranes
Test [2] has as its system Rattus norvegicus. Description: Stereotyped behavior was tested in rats at (ip) administration of 3 mg/kg (N=6).scores were compared as the percent of that obtained with apomorphine. It counts as functional.
For test [3], the target named is D(2) dopamine receptor (Rattus norvegicus, UniProt P61169).
Chain of D(2) dopamine receptor (P61169 whole entry): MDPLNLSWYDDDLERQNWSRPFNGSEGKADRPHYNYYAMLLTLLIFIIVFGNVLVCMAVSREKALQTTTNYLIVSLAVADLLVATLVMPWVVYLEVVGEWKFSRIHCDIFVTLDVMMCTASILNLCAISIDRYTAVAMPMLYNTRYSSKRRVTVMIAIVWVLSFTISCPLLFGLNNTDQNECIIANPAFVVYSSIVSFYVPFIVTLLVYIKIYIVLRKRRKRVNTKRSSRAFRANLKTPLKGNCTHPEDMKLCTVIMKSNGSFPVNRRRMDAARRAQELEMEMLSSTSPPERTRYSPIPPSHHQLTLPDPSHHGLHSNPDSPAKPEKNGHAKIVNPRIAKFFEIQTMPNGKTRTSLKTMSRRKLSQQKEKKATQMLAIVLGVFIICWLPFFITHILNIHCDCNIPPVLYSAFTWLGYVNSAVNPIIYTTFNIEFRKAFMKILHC
Description: Dopamine receptor D2 affinity was tested in vitro against corpus striatum from rat brain membranes

Chain of D(1A) dopamine receptor (P18901 whole entry): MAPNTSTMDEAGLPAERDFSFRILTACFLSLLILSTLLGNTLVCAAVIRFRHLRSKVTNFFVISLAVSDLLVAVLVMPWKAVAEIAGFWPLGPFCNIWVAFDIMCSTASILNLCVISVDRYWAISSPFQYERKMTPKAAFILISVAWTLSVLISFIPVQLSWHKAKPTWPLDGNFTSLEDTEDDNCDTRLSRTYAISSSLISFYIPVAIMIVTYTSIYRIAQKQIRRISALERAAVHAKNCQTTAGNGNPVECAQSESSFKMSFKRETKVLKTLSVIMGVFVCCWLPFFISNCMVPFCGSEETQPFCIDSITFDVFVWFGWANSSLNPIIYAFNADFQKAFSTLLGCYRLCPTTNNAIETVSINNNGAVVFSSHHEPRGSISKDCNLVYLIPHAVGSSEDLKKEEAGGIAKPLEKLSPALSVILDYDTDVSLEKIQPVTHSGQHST

By Ki is commonly meant the equilibrium dissociation constant of an inhibitor or competing ligand from its target. Consider `CC(C)N1CCc2cccc3c2[C@H]1Cc1ccc(O)c(O)c1-3.Cl`, for which the Ki in test [1] is more than 10 µM. Moreover, in test [2], the Stereotypy score is recorded as 0.
For `Cl.Oc1ccc2c(c1O)-c1cccc3c1[C@@H](C2)N(CC(F)(F)F)CC3`, in that order: more than 50 µM and 2.
`CN1CCc2cccc3c2[C@H]1Cc1ccc(O)c(O)c1-3.CN1CCc2cccc3c2[C@H]1Cc1ccc(O)c(O)c1-3.Cl.Cl.O` [APOMORPHINE HYDROCHLORIDE]: the Stereotypy score in test [2] was 100.
In test [1], `Cl.Oc1ccc2c(c1O)-c1cccc3c1[C@@H](C2)NCC3` registered a Ki of 0.39 µM. For the same compound, the Stereotypy score in test [2] was 26.
As for `Cl.OCCN1CCc2cccc3c2[C@H]1Cc1ccc(O)c(O)c1-3`, the Ki in test [1] was more than 10 µM. In test [2], this compound came in with a Stereotypy score of 0.
With `CC(C)CN1CCc2cccc3c2[C@H]1Cc1ccc(O)c(O)c1-3.Cl`, the Ki was more than 10 µM in test [1] and 0.49 µM in test [3]. The compound further gave a Stereotypy score in test [2] of 3.
In the case of `CCN1CCc2cccc3c2[C@H]1Cc1ccc(O)c(O)c1-3.Cl`, in test [1], the inhibitory constant (Ki) came to 0.124 µM. In test [2], the Stereotypy score is 97.
In turn, `CCCN1CCc2cccc3c2[C@H]1Cc1ccc(O)c(O)c1-3.Cl` yielded a Stereotypy score in test [2] of 99.
For the compound `Br.C=CCN1CCc2cccc3c2[C@H]1Cc1ccc(O)c(O)c1-3`, the affinity in test [1] corresponds to a Ki of 0.615 µM. In addition, the Stereotypy score in test [2] is 86.
Consider `Cl.Oc1ccc2c(c1O)-c1cccc3c1[C@@H](C2)N(CC1CC1)CC3`, for which the Ki in test [1] worked out at 0.73 µM; in test [3] it was 0.00043 µM. The Stereotypy score in test [2] is 106.
Regarding `Oc1ccc2c(c1O)-c1cccc3c1[C@@H](C2)N(CC(F)(F)C(F)(F)F)CC3`, in test [1], the Ki was more than 50 µM.
